Source: article PMC3662613 (Chemmedchem, 2013)
≈ marks a conversion by molar mass, not a printed value. Where “and” joins values, the source holds several entries; their conditions need not be identical. Identical values can stand only once. Like-named read-outs stand apart in the source and are kept apart here.

How the values were obtained:
Plasma stability [1] = type: in vitro ADME; conditions: human
HCT15 = assay: Cytotoxicity / antiproliferative activity; type: cell-based; conditions: Homo sapiens
[2] = tested on: poly(ADP-ribose) polymerase (PARP); assay: PARP cleavage immunoblot, SW403 cells; type: cell-based; conditions: 2 h
SW403 = assay: Cytotoxicity / antiproliferative activity; type: cell-based; conditions: Homo sapiens
Plasma protein binding [3] = type: in vitro ADME; conditions: human
p97 ATPase = p97 ATPase (Homo sapiens, UniProt P55072); assay: p97 ATPase assay; type: biochemical; conditions: for IC50: IC50 ATPase, triplicate, mean ±SD
PIP5K3 = PIP5K3 (Homo sapiens, UniProt Q9Y2I7); assay: KiNativ profiling; type: binding; conditions: 20 μM, ATP
[4] = tested on: HMEC, PHMLEB, PHMLER cells; assay: Cellular viability; type: cell-based, human; conditions: 24 h, CellTiter-Glo
[5] = Hepatic microsome stability; type: in vitro ADME; conditions: mouse, liver microsomes
Hepatic toxicity = type: cell-based; conditions: human, Fa2N-4 immortalized human hepatocytes
caspases 3 and 7 = assay: Caspase 3 and 7 activity in colon cancer cell lines; type: cell-based; conditions: multiple colon cancer cell lines; dose- and time-dependent
NCI 60 cancer cell lines = assay: NCI 60-cell-line screen; type: cell-based; conditions: 48 h; for Mean GP: mean of 60 NCI cell lines ±SD
LC3-II = assay: Autophagy reporter LC3-II immunoblot; conditions: for accumulation of lipidated LC3-II: HEK293, 5 h
[6] = tested on: ODD-Luc (p97-independent proteasome substrate); assay: ODD-Luc reporter degradation assay, dual reporter HeLa cell line; type: cell-based; conditions: Homo sapiens, read-out: IC50 ODD-Luc
[7] = Hepatic microsome stability; type: in vitro ADME; conditions: human, liver microsomes
ubiquitin conjugates = assay: Ubiquitin conjugate accumulation immunoblot, SW403 cells; conditions: 5–10 μM; nuclear plus membrane and cytosolic compartments
Plasma protein binding [8] = type: in vitro ADME; conditions: mouse
5-HT5a = 5-HT5a (Homo sapiens, UniProt P47898); assay: CNS panel binding; conditions: 5HT5a receptor
Aqueous solubility = type: physicochemical; conditions: aqueous buffer
Plasma stability [9] = type: in vitro ADME; conditions: mouse
JAK1 domain1 = JAK1 domain1 (Homo sapiens, UniProt P23458); assay: KiNativ profiling; type: binding; conditions: 20 μM, Other
PAMPA = type: in vitro ADME; conditions: acceptor pH 7.4; for Papp: PAMPA; for PAMPA Pe: in the presence of 20% CH3CN
∼170 kinases = assay: KiNativ kinase profiling, whole panel, PC3 cell lysate; type: binding, Homo sapiens; conditions: 20 μM
[10] = HCT-15, 24 h, read-out: Cytotoxicity GI50 HCT15 24 h
[11] = HCT-15, 72 h, read-out: Cytotoxicity GI50 HCT15 72 h
[12] = SW-403, 24 h, read-out: Cytotoxicity GI50 SW403 24 h
[13] = SW-403, 72 h, read-out: Cytotoxicity GI50 SW403 72 h

p97 ATPase, sequence (P55072 whole entry): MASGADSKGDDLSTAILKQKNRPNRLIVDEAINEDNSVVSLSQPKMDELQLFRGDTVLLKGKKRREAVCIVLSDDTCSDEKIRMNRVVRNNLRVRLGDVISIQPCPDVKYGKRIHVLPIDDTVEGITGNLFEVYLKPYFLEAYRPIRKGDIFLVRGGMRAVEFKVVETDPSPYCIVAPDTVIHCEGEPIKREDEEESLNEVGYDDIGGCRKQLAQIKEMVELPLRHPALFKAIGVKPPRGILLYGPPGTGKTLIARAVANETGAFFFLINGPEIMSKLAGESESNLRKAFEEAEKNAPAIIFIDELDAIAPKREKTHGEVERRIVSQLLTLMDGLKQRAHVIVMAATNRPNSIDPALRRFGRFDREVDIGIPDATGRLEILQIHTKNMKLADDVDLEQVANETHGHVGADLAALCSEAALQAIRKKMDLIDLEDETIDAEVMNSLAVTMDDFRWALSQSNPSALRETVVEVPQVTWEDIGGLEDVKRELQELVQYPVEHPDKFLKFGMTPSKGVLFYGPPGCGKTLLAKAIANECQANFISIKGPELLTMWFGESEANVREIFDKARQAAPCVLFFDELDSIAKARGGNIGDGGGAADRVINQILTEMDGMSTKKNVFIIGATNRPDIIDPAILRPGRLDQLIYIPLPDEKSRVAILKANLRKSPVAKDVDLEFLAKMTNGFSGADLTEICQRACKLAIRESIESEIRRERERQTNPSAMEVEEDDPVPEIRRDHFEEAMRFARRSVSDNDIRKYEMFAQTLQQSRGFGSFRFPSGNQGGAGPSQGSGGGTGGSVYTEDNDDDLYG
5-HT5a, sequence (P47898 whole entry, species assumed): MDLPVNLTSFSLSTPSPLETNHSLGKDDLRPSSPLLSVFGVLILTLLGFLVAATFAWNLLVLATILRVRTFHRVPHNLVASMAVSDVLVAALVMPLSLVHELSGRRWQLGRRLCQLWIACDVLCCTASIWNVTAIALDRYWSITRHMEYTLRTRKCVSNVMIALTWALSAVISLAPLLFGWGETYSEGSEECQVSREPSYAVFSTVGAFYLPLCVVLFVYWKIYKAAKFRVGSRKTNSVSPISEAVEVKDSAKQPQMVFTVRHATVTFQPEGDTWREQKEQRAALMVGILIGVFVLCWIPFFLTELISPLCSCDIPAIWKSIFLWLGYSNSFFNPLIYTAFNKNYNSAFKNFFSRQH
PIP5K3, sequence (Q9Y2I7 whole entry): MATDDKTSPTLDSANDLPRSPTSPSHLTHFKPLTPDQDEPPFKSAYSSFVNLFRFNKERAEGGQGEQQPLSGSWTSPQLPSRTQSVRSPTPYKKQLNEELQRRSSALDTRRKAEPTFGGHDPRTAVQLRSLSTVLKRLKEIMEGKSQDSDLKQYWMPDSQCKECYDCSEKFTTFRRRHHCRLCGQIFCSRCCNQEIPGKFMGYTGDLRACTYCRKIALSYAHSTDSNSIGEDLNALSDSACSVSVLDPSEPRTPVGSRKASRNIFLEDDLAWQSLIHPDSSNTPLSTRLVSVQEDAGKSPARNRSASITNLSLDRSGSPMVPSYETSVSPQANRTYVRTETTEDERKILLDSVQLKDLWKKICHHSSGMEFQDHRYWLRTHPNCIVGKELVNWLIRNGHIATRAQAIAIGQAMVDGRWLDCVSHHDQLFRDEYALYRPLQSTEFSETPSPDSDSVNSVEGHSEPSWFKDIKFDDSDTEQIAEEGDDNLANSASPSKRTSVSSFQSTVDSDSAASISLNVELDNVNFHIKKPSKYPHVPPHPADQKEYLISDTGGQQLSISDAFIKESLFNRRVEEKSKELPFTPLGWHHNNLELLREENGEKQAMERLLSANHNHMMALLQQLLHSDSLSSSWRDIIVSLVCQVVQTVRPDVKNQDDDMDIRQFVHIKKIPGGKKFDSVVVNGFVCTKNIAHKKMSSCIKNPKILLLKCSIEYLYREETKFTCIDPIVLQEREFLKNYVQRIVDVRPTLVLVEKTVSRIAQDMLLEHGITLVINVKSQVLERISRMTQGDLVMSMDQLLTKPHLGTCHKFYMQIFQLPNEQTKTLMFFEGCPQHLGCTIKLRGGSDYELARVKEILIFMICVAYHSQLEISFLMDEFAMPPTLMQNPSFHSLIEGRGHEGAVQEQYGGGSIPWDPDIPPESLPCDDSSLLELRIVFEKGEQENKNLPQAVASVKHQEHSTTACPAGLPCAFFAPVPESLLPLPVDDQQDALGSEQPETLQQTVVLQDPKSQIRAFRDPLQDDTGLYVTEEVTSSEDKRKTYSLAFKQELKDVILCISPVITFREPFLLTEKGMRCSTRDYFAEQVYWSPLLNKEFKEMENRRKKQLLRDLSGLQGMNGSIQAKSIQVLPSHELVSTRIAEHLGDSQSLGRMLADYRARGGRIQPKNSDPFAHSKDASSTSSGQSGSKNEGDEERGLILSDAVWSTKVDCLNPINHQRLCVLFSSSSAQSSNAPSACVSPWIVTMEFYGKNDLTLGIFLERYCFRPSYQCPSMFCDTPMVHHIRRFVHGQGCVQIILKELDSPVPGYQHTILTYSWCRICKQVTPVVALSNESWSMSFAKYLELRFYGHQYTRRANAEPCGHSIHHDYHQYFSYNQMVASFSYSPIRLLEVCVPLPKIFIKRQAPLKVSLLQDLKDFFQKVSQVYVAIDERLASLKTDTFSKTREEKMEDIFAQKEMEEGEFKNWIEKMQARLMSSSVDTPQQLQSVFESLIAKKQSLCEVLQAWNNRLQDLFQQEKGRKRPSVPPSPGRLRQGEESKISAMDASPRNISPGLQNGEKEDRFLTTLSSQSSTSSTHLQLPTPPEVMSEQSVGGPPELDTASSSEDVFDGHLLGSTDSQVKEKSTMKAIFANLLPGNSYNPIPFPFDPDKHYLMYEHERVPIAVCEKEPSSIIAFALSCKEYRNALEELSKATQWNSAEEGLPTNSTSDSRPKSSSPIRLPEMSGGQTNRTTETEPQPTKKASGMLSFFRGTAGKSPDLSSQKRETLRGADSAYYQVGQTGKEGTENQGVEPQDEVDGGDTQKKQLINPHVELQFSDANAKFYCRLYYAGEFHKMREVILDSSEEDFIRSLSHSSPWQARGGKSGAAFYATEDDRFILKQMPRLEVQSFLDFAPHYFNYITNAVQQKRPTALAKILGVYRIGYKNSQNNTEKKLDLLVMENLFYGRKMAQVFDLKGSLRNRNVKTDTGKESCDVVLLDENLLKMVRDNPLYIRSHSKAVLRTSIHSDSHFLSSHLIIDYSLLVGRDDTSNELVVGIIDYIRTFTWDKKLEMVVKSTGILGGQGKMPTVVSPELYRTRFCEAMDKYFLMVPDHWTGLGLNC
JAK1 domain1, sequence (P23458 whole entry, the tested form may be a part): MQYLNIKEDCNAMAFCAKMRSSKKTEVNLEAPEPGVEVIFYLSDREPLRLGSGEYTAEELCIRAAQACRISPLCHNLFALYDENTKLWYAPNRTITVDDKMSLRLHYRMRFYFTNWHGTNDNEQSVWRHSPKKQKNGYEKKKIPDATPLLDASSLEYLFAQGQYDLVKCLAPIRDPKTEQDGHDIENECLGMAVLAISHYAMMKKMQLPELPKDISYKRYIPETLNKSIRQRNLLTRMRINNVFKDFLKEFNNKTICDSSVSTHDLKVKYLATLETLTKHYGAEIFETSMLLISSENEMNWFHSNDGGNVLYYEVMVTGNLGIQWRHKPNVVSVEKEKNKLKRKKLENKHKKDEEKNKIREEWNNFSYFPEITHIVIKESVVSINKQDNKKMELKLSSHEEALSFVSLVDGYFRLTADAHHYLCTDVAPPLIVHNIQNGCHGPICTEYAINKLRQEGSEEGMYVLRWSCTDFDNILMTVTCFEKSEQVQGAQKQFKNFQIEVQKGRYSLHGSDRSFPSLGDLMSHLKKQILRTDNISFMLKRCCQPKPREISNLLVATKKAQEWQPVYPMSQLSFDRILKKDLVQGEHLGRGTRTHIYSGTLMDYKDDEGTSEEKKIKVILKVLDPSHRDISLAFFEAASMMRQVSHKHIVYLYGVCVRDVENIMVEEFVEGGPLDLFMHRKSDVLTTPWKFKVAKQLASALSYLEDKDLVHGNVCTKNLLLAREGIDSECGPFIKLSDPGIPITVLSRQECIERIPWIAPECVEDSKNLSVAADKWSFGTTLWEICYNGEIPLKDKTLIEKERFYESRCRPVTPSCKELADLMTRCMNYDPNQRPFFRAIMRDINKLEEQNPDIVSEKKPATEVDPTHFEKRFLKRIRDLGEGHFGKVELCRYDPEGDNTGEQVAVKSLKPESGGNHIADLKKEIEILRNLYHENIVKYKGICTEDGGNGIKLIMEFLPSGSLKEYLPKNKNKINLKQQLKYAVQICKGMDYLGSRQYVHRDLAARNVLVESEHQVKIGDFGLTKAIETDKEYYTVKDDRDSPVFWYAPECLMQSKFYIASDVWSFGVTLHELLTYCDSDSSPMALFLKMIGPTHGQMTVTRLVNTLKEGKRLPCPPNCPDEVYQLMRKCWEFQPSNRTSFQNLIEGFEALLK

| Compound | remaining at 3 h (Plasma stability [1]) [%] | GI50 (HCT15; [10]) [nM] | GI50 (HCT15; [11]) [nM] | GI50 (SW403; [12]) [nM] | GI50 (SW403; [13]) [nM] | fraction unbound at 1 μM (Plasma protein binding [3]) | fraction unbound at 10 μM (Plasma protein binding [3]) | Ki (p97 ATPase) [nM] | mechanism of p97 inhibition with respect to ATP (p97 ATPase) | IC50 (p97 ATPase) | remaining at 1 h [5] [%] | CC50 (Hepatic toxicity) [nM] | Mean GP (NCI 60 cancer cell lines) [%] | accumulation of lipidated LC3-II (LC3-II) | IC50 [6] [nM] | remaining at 1 h [7] [%] | accumulation of ubiquitin conjugates (ubiquitin conjugates) | fraction unbound at 1 μM (Plasma protein binding [8]) | fraction unbound at 10 μM (Plasma protein binding [8]) | solubility (Aqueous solubility; pH 5, aqueous buffer) [µg/mL] | also measured |
| --- | --- | --- | --- | --- | --- | --- | --- | --- | --- | --- | --- | --- | --- | --- | --- | --- | --- | --- | --- | --- | --- |
| COc1cccc2c(NCc3ccccc3)nc(-n3c(N)nc4ccccc43)nc12 [ML240, 2-(2-Amino-1H-benzo[d]imidazol-1-yl)-N-benzyl-8-methoxyquinazolin-4-amine] | 100 | 760 ± 140 | 540 ± 190 | 500 ± 70 | 500 ± 100 | 0.0047 | 0.0029 | 220 | competitively | ~100 nM and 100 nM | 0.63 | 8500 | −84.5±15.5 | induced accumulation | 28000 ± 7000 | 54.3 | caused accumulation of ubiquitin conjugates | 0.0027 | 0.0037 | 0.35 (≈ 0.883 µM) | cleavage of PARP [2]: induced efficient cleavage; % Inhibition (PIP5K3): > 50%; potency on normal vs immortalized and tumorigenic cell lines [4]: slightly greater potency toward the immortalized and transformed cells; induction of caspase activity (caspases 3 and 7): induced caspase activity; Highest GP (NCI 60 cancer cell lines; least inhibited individual cancer cell line): −43.8 (HS 578T) %; Lowest GP (NCI 60 cancer cell lines; most inhibited individual cancer cell line): −100.0 (OVCAR-4) %; time of LC3-II accumulation after addition of drug (LC3-II; HCT116, 10 μM, as early as): 10 min; Ki (5-HT5a): 2500 nM; solubility (Aqueous solubility; pH 6.2, aqueous buffer): 0.33 µg/mL (≈ 0.832 µM); solubility (Aqueous solubility; pH 7.4, aqueous buffer): 0.27 µg/mL (≈ 0.681 µM); remaining at 3 h (Plasma stability [9]): 100%; % Inhibition (JAK1 domain1): > 50%; Papp (PAMPA; PAMPA Pe, donor pH 5.0): 357 ×10⁻⁶ cm/s; Papp (PAMPA; PAMPA Pe, donor pH 6.2): 628 ×10⁻⁶ cm/s; Papp (PAMPA; pH 7.4, PAMPA Pe, donor pH 7.4): < 60.3 ×10⁻⁶ cm/s |
| c1ccc(CNc2nc(N3CCOc4ccccc43)nc3c2CCCC3)cc1 [ML241, 2-(2H-Benzo[b][1,4]oxazin-4(3H)-yl)-N-benzyl-5,6,7,8-tetrahydroquinazolin-4-amine] | 100 | 53000 ± 5000 | 13000 ± 4000 | 33000 ± 7000 | 12000 ± 3000 | 0.0003 | 0.0005 | 350 | competitively | ~100 nM and 100 nM | 2.57 | > 50000 | 92.8±22.8 | lack of effect | 46000 ± 8000 | 19 | caused accumulation of ubiquitin conjugates | 0.0005 | 0.0009 | 28 (≈ 75.2 µM) | inhibition of labeling across the panel (∼170 kinases): did not appreciably inhibit labeling; solubility (Aqueous solubility; pH 6.2, aqueous buffer): 0.13 µg/mL (≈ 0.349 µM); solubility (Aqueous solubility; pH 7.4, aqueous buffer): 0.2 µg/mL (≈ 0.537 µM); remaining at 3 h (Plasma stability [9]): 100%; PAMPA Pe (PAMPA; donor pH 5.0): 1164 ×10⁻⁶ cm/s; PAMPA Pe (PAMPA; donor pH 6.2): 2504 ×10⁻⁶ cm/s; PAMPA Pe (PAMPA; donor pH 7.4): 2278 ×10⁻⁶ cm/s |
